# Results: US20080107619A1, “Carbohydrate based cellulase inhibitors as feeding stimulants in termites” (University of Florida Research Foundation, Inc., priority 2006, published 2008)
# “Also recorded” adds a separate entry of the source.
# Test system: R. flavipes worker termites
# Test: No-choice Petri dish in vivo feeding bioassay (feeding and mortality, 24 days)
# Details: for Normalized Avg. Totals: relative to control [0] average; for maximum mortality: after 24 days
# Protocol: R. flavipes colonies were collected from the University of Florida campus during spring and summer 2006. Colonies were maintained in sealed plastic boxes (30×24×10 cm) at 22±1° C. and 69±1% RH. Colonies were maintained without soil and provisioned with moist brown paper towels and wood shims. Colonies that were acclimated under the above conditions for <2 months are referred to as “field colonies”, while those held for >6 months are referred to as “lab colonies”. Unless otherwise stated, all studies reported here were run with lab colonies.
# Two different termite colonies were used. A lab colony was used in bioassays that tested the effects of CBI and FMG; this was the same colony used in cellulase optimization studies, cellulase distribution studies, and for […] determination. The other colony was a field colony, which was used to repeat the FMG assay along side FMCB. The no-choice feeding bioassay was derived from a previously-developed and slightly modified caste differentiation assay reported by M. E. Scharf, et al. in “Caste differentiation responses of two sympatric Reticulitermes termite species to juvenile hormone homologs and synthetic juvenoids in two laboratory assays.” Insectes Soc. […] Acad. Sci. USA, 103 (2006) 4499-504.
# Prior to treatment, paper disks 30 were weighed. Treatments and controls were held in complete darkness at approximately 26±1° C. and 69±1% RH. The inhibitor concentrations tested were 75, 50, 25, 10, 5, 1, 0.5, and 0.1 mM (approximately […] wt/wt). For each inhibitor, paper disks were treated with 50 μl of a given concentration. Control disks received 50 μl methanol alone. Treated papers were allowed to dry in a fume hood for 30 min before placing in dishes, wetting with 25 μl water, and adding 15 termites.
# Termite feeding on the filter papers was readily observable and quantifiable from the bioassays. Average feeding through the entire bioassay was summed within each replicate and calculated as a percentage of feeding relative to untreated controls, then averaged across replicates.
# The experimental design consisted of three replicate dishes per concentration. All assays were carried out for a total of 24 days. Termite mortality and filter paper moisture were monitored every 4th day. Every 8th day, old paper disks were replaced with new ones. These new filter paper disks were treated with identical inhibitor concentrations. The removed filter paper disks 30, showing the results of termite feeding (FIG. 6), were dried and re-weighed. At the end of each assay, data were summarized as cumulative feeding per live termite and cumulative termite mortality. Data were analyzed by non-parametric t-tests (p<0.05) with commercially-available software for use in statistical analysis, designed by SAS Institute, Cary, N.C.
# FIGS. 7A-7F provide graphic data on in vivo feeding bioassays conducted with the carbohydrate-based cellulase inhibitors to assess the impact on termite feeding and survivorship. Feeding results are expressed as the cumulative percent of untreated controls through 24 days. Mortality results are expressed as percent mortality after 24 days. […] Error bars represent standard error of the mean.
# [1] = 0.1 mM test conc., 1st ROUND (lab colony)
# [2] = 0.1 mM test conc., 2nd ROUND (field colony)
# [3] = 0.5 mM test conc., 1st ROUND (lab colony)
# [4] = 0.5 mM test conc., 2nd ROUND (field colony)
# [5] = 1 mM test conc., 1st ROUND (lab colony)
# [6] = 1 mM test conc., 2nd ROUND (field colony)
# [7] = 5 mM test conc., 1st ROUND (lab colony)
# [8] = 5 mM test conc., 2nd ROUND (field colony)
# [9] = 10 mM test conc., 1st ROUND (lab colony)
# [10] = 10 mM test conc., 2nd ROUND (field colony)
# [11] = 25 mM test conc., 1st ROUND (lab colony)
# [12] = 25 mM test conc., 2nd ROUND (field colony)
# [13] = 50 mM test conc., 1st ROUND (lab colony)
# [14] = 50 mM test conc., 2nd ROUND (field colony)
# [15] = 75 mM test conc., 1st ROUND (lab colony)
# [16] = 75 mM test conc., 2nd ROUND (field colony)
substance,measurement,setting,value
fluoromethyl glucose [FMG],Average Feeding in mg per Live Termite (std. err.) days 1-8,[1],0.52 (0.03) mg per Live Termite
same,Average Feeding in mg per Live Termite (std. err.) days 9-16,[1],0.48 (0.10) mg per Live Termite
same,Average Feeding in mg per Live Termite (std. err.) days 17-24,[1],0.45 (0.04) mg per Live Termite
same,Normalized Avg. Totals,[1],0.98
same,Average Feeding in mg per Live Termite (std. err.) days 1-8,[2],0.20 (0.04) mg per Live Termite
same,Average Feeding in mg per Live Termite (std. err.) days 9-16,[2],0.33 (0.05) mg per Live Termite
same,Average Feeding in mg per Live Termite (std. err.) days 17-24,[2],0.48 (0.07) mg per Live Termite
same,Normalized Avg. Totals,[2],0.92
same,Average Feeding in mg per Live Termite (std. err.) days 1-8,[3],0.57 (0.08) mg per Live Termite
same,Average Feeding in mg per Live Termite (std. err.) days 9-16,[3],0.54 (0.07) mg per Live Termite
same,Average Feeding in mg per Live Termite (std. err.) days 17-24,[3],0.44 (0.07) mg per Live Termite
same,Normalized Avg. Totals,[3],0.96
same,Average Feeding in mg per Live Termite (std. err.) days 1-8,[4],0.34 (0.01) mg per Live Termite
same,Average Feeding in mg per Live Termite (std. err.) days 9-16,[4],0.34 (0.03) mg per Live Termite
same,Average Feeding in mg per Live Termite (std. err.) days 17-24,[4],0.47 (0.03) mg per Live Termite
same,Normalized Avg. Totals,[4],1.03
same,Average Feeding in mg per Live Termite (std. err.) days 1-8,[5],0.55 (0.02) mg per Live Termite
same,Average Feeding in mg per Live Termite (std. err.) days 9-16,[5],0.58 (0.03) mg per Live Termite
same,Average Feeding in mg per Live Termite (std. err.) days 17-24,[5],0.51 (0.03) mg per Live Termite
same,Normalized Avg. Totals,[5],0.92
same,Average Feeding in mg per Live Termite (std. err.) days 1-8,[6],0.36 (0.04) mg per Live Termite
same,Average Feeding in mg per Live Termite (std. err.) days 9-16,[6],0.38 (0.01) mg per Live Termite
same,Average Feeding in mg per Live Termite (std. err.) days 17-24,[6],0.39 (0.06) mg per Live Termite
same,Normalized Avg. Totals,[6],1.04
same,Average Feeding in mg per Live Termite (std. err.) days 1-8,[7],0.39 (0.06) mg per Live Termite
same,Average Feeding in mg per Live Termite (std. err.) days 9-16,[7],0.58 (0.07) mg per Live Termite
same,Average Feeding in mg per Live Termite (std. err.) days 17-24,[7],0.39 (0.07) mg per Live Termite
same,Normalized Avg. Totals,[7],0.72
same,Average Feeding in mg per Live Termite (std. err.) days 1-8,[8],0.29 (0.02) mg per Live Termite
same,Average Feeding in mg per Live Termite (std. err.) days 9-16,[8],0.29 (0.03) mg per Live Termite
same,Average Feeding in mg per Live Termite (std. err.) days 17-24,[8],0.43 (0.05) mg per Live Termite
same,Normalized Avg. Totals,[8],0.92
same,Average Feeding in mg per Live Termite (std. err.) days 1-8,[9],0.32 (0.07) mg per Live Termite
same,Average Feeding in mg per Live Termite (std. err.) days 9-16,[9],0.38 (0.09) mg per Live Termite
same,Average Feeding in mg per Live Termite (std. err.) days 17-24,[9],0.41 (0.05) mg per Live Termite
same,Normalized Avg. Totals,[9],0.93
same,Average Feeding in mg per Live Termite (std. err.) days 1-8,[10],0.17 (0.02) mg per Live Termite
same,Average Feeding in mg per Live Termite (std. err.) days 9-16,[10],0.25 (0.02) mg per Live Termite
same,Average Feeding in mg per Live Termite (std. err.) days 17-24,[10],0.45 (0.04) mg per Live Termite
same,Normalized Avg. Totals,[10],0.79
same,Average Feeding in mg per Live Termite (std. err.) days 1-8,[11],0.27 (0.04) mg per Live Termite
same,Average Feeding in mg per Live Termite (std. err.) days 9-16,[11],0.22 (0.05) mg per Live Termite
same,Average Feeding in mg per Live Termite (std. err.) days 17-24,[11],0.34 (0.02) mg per Live Termite
same,Normalized Avg. Totals,[11],0.83
same,Average Feeding in mg per Live Termite (std. err.) days 1-8,[12],0.25 (0.04) mg per Live Termite
same,Average Feeding in mg per Live Termite (std. err.) days 9-16,[12],0.31 (0.05) mg per Live Termite
same,Average Feeding in mg per Live Termite (std. err.) days 17-24,[12],0.40 (0.02) mg per Live Termite
same,Normalized Avg. Totals,[12],0.87
same,Average Feeding in mg per Live Termite (std. err.) days 1-8,[13],0.30 (0.01) mg per Live Termite
same,Average Feeding in mg per Live Termite (std. err.) days 9-16,[13],0.34 (0.01) mg per Live Termite
same,Average Feeding in mg per Live Termite (std. err.) days 17-24,[13],0.34 (0.02) mg per Live Termite
same,Normalized Avg. Totals,[13],0.99
same,Average Feeding in mg per Live Termite (std. err.) days 1-8,[14],0.25 (0.02) mg per Live Termite
same,Average Feeding in mg per Live Termite (std. err.) days 9-16,[14],0.28 (0.03) mg per Live Termite
same,Average Feeding in mg per Live Termite (std. err.) days 17-24,[14],0.29 (0.01) mg per Live Termite
same,Normalized Avg. Totals,[14],0.74
same,Average Feeding in mg per Live Termite (std. err.) days 1-8,[15],0.17 (0.03) mg per Live Termite
same,Average Feeding in mg per Live Termite (std. err.) days 9-16,[15],0.21 (0.02) mg per Live Termite
same,Average Feeding in mg per Live Termite (std. err.) days 17-24,[15],0.28 (0.02) mg per Live Termite
same,Normalized Avg. Totals,[15],0.67
same,Average Feeding in mg per Live Termite (std. err.) days 1-8,[16],0.21 (0.03) mg per Live Termite
same,Average Feeding in mg per Live Termite (std. err.) days 9-16,[16],0.19 (0.07) mg per Live Termite
same,Average Feeding in mg per Live Termite (std. err.) days 17-24,[16],0.27 (0.05) mg per Live Termite
same,Normalized Avg. Totals,[16],0.60
same,Effect on feeding (cumulative percent of untreated controls through 24 days),"across tested concentrations 0.1-75 mM, FIGS. 7A-7C, 8A-8B",did not stimulate consumption at any concentration; also recorded: little stimulatory effects at any concentration
same,"mortality, field colony termites","field colony, FIG. 13",approximately 30%
same,maximum mortality,"highest FMG concentration, FIG. 7D (2 colonies averaged)",approximately 20%
same,maximum mortality,"highest concentration tested, FIG. 10A",10%
same,"mortality, lab colony termites","lab colony, FIG. 13",2-3%
